Results reported in the kinase profiling compilation of Christmann-Franck et al. (2016).

How the values were obtained:
Experiment in all cases: Caliper, Mobility shift assay off-chip
PRKCI (human) = PRKCI (human) (UniProt P41743)
PIM3 (human) = PIM3 (human) (UniProt Q86V86)
ROCK1 (human) = ROCK1 (human) (UniProt Q13464)
EPHB1 (human) = EPHB1 (human) (UniProt P54762)
TYRO3 (human) = TYRO3 (human) (UniProt Q06418)
DYRK3 (human) = DYRK3 (human) (UniProt O43781)
PASK (human) = PASK (human) (UniProt Q96RG2)
RPS6KA6 KD1 KD2 (human) = RPS6KA6 KD1 KD2 (human) (UniProt Q9UK32)
[1] = tested on: EGFR (human), P00533 [T790M]
MERTK (human) = MERTK (human) (UniProt Q12866)
[2] = tested on: FGFR3 (human), P22607 [K650E]
DAPK3 (human) = DAPK3 (human) (UniProt O43293)
Chain of DAPK3 (human) (O43293 whole entry, looked up): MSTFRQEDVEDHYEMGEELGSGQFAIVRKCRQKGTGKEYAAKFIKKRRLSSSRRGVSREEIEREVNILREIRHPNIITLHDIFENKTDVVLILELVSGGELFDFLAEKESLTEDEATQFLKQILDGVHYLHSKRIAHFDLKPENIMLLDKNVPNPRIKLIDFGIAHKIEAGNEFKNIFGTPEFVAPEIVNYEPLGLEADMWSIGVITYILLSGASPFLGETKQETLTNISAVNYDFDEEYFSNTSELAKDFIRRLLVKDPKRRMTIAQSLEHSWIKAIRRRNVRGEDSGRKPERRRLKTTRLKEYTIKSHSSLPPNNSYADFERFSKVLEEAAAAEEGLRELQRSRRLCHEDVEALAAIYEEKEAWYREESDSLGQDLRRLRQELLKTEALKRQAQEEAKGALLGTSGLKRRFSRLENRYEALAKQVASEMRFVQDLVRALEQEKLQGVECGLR

CDK5 CDK5R1 p25 (human) = CDK5 CDK5R1 p25 (human) (UniProt Q15078+Q00535)
KIT (human) = KIT (human) (UniProt P10721)
MELK (human) = MELK (human) (UniProt Q14680)
ITK (human) = ITK (human) (UniProt Q08881)
DCLK1 (human) = DCLK1 (human) (UniProt O15075)
Chain of DCLK1 (human) (O15075 whole entry, looked up): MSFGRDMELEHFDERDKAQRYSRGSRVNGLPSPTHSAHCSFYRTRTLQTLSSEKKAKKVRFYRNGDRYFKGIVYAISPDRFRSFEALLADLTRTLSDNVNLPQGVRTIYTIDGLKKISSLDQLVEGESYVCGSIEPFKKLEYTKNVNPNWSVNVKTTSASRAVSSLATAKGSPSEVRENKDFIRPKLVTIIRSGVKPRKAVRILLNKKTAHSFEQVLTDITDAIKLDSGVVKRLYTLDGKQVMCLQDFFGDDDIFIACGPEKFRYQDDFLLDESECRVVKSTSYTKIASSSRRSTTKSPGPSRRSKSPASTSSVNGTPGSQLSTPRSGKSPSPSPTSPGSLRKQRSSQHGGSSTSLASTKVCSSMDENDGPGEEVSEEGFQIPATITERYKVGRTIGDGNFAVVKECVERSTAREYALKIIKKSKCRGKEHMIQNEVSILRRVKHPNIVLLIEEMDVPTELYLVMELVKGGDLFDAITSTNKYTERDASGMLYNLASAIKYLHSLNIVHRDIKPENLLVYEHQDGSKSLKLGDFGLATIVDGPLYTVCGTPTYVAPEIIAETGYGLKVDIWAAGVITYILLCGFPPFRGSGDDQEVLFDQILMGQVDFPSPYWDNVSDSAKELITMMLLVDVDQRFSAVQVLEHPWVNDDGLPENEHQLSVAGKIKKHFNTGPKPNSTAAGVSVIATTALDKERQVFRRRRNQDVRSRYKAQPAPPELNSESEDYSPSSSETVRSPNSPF

ROS1 (human) = ROS1 (human) (UniProt P08922)
AXL (human) = AXL (human) (UniProt P30530)
CSNK1G2 (human) = CSNK1G2 (human) (UniProt P78368)
[3] = tested on: PDGFRA (human), P16234 [V561D]
EPHA8 (human) = EPHA8 (human) (UniProt P29322)
YES1 (human) = YES1 (human) (UniProt P07947)
Chain of YES1 (human) (P07947 whole entry, looked up): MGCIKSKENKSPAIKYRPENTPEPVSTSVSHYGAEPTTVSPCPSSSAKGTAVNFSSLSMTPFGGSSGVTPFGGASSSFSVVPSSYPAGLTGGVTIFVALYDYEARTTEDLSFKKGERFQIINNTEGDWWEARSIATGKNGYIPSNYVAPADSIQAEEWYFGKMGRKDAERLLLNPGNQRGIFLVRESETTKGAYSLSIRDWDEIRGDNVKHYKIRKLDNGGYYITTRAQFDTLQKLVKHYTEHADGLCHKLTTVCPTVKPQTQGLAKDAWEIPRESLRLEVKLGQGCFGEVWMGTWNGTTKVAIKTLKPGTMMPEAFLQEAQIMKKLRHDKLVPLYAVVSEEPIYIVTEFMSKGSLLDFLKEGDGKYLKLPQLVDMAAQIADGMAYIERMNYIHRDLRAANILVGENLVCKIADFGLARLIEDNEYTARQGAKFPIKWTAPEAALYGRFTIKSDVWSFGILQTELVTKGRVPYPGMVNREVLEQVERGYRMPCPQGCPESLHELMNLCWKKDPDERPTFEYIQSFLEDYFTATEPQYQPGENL

[4] = tested on: EGFR (human), P00533 [T790M/L858R]
HIPK1 (human) = HIPK1 (human) (UniProt Q86Z02)
Chain of HIPK1 (human) (Q86Z02 whole entry, looked up): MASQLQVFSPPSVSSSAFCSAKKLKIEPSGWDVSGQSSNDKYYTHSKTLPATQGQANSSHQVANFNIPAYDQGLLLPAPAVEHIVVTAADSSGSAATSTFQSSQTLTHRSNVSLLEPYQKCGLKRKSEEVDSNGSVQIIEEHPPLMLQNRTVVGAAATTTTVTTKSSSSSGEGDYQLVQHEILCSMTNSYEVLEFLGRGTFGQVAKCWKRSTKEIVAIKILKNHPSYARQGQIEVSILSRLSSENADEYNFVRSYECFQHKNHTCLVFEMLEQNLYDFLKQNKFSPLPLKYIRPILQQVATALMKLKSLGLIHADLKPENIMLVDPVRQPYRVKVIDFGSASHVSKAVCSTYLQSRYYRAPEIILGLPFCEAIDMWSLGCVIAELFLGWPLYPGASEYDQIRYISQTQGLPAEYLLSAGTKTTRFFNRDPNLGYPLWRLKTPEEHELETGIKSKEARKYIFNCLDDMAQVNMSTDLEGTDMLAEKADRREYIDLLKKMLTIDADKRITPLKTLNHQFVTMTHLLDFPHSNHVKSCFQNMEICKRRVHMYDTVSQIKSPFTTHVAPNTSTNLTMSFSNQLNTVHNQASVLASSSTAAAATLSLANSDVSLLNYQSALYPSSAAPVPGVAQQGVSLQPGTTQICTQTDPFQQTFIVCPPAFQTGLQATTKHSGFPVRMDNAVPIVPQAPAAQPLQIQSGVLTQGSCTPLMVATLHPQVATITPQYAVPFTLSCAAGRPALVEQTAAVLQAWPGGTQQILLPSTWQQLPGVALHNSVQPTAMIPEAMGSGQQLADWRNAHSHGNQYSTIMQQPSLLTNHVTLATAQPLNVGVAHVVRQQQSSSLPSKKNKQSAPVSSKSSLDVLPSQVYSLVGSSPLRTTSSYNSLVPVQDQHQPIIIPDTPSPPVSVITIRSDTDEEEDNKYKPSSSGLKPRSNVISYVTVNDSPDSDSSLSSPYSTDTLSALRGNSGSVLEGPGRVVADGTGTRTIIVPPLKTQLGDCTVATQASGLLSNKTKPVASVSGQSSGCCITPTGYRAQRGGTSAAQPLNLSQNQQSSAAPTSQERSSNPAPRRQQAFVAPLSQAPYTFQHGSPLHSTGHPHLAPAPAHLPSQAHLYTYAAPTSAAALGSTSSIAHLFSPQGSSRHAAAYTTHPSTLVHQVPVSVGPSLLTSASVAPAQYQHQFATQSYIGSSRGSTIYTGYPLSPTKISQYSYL

BLK (human) = BLK (human) (UniProt P51451)
DAPK1 (human) = DAPK1 (human) (UniProt P53355)
Chain of DAPK1 (human) (P53355 whole entry, looked up): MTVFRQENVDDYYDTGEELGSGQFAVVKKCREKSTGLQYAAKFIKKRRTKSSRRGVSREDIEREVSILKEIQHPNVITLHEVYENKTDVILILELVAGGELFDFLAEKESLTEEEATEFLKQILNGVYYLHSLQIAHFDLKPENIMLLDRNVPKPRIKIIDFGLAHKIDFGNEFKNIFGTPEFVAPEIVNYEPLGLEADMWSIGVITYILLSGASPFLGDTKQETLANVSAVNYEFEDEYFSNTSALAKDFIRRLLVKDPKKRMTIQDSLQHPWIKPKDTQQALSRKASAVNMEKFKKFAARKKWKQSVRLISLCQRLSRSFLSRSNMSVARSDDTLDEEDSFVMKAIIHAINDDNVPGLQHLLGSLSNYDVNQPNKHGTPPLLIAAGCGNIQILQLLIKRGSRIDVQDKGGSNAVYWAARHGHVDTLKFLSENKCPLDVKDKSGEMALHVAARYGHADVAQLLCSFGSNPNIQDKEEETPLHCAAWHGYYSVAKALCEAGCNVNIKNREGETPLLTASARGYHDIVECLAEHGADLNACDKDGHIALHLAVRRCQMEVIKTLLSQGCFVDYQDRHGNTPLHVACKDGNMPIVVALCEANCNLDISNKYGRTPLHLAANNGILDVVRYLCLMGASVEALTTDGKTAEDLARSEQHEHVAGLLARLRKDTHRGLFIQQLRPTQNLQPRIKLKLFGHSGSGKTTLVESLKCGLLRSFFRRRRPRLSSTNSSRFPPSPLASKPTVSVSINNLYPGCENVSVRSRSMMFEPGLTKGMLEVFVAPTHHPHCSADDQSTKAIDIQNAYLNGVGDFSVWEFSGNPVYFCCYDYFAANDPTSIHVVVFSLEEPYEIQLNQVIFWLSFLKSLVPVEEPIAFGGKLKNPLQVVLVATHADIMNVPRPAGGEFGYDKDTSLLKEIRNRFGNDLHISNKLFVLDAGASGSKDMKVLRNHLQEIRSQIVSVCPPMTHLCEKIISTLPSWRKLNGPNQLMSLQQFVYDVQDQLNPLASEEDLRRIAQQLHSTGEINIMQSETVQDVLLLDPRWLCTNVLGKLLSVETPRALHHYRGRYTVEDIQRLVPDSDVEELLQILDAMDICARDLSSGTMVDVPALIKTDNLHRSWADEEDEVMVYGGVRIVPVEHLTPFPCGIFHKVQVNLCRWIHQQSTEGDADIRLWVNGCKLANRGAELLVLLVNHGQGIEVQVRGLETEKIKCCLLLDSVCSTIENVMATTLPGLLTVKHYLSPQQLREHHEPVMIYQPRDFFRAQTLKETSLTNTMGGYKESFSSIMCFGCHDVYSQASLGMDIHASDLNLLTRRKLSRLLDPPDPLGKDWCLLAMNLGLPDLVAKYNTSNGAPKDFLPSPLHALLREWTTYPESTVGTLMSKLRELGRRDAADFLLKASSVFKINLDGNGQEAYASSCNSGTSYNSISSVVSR

MARK4 (human) = MARK4 (human) (UniProt Q96L34)
CSNK1G3 (human) = CSNK1G3 (human) (UniProt Q9Y6M4)
CAMK2A (human) = CAMK2A (human) (UniProt Q9UQM7)
Chain of CAMK2A (human) (Q9UQM7 whole entry, looked up): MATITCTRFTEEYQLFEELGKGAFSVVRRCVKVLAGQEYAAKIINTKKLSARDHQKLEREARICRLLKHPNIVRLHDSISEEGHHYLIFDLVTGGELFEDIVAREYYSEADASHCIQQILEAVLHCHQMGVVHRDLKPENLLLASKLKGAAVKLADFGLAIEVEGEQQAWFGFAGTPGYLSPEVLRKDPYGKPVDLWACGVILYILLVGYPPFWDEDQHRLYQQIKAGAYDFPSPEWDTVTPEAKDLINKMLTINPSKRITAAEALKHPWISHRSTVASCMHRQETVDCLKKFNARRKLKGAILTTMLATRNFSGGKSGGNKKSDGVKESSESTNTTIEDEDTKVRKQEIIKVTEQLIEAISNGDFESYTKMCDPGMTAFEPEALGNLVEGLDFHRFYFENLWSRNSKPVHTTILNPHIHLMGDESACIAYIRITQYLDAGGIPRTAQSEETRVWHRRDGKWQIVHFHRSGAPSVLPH

HIPK2 (human) = HIPK2 (human) (UniProt Q9H2X6)
PTK2B (human) = PTK2B (human) (UniProt Q14289)
DYRK4 (human) = DYRK4 (human) (UniProt Q9NR20)

`CN(c1ccc2ccc3ncc(-c4cnn(C)c4)cc3c(=O)c2c1)S(=O)(=O)NCc1ccccn1` was tested, and the inhibition (PRKCI (human); compound 0.1 µM) was 3.9%, the inhibition (PRKCI (human); compound 1.0 µM) was -0.5% and the inhibition (PIM3 (human); compound 0.1 µM) was 4%. For the same compound, the inhibition (PIM3 (human); compound 1.0 µM) was 0.2%, the inhibition (ROCK1 (human); compound 0.1 µM) was 14.4% and the inhibition (ROCK1 (human); compound 1.0 µM) was 1.7%. For the same compound, the inhibition (EPHB1 (human); compound 0.1 µM) was 1.8%, the inhibition (EPHB1 (human); compound 1.0 µM) was 9.7% and the inhibition (TYRO3 (human); compound 0.1 µM) was 20.2%. For the same compound, the inhibition (TYRO3 (human); compound 1.0 µM) was 66.3%, the inhibition (DYRK3 (human); compound 0.1 µM) was 9.6% and the inhibition (DYRK3 (human); compound 1.0 µM) was 21.5%. The inhibition (PASK (human); compound 0.1 µM) was -10.1%, the inhibition (PASK (human); compound 1.0 µM) was 5.9% and the inhibition (RPS6KA6 KD1 KD2 (human); compound 0.1 µM) was 0.5%. It also gave an inhibition (RPS6KA6 KD1 KD2 (human); compound 1.0 µM) of 5.6%, an inhibition ([1]; compound 0.1 µM) of 11.2% and an inhibition ([1]; compound 1.0 µM) of 1.9%. For the same compound, the inhibition (MERTK (human); compound 0.1 µM) was 52.7%, the inhibition (MERTK (human); compound 1.0 µM) was 94.5% and the inhibition ([2]; compound 0.1 µM) was 15.1%. It also gave an inhibition ([2]; compound 1.0 µM) of 59.4%, an inhibition (DAPK3 (human); compound 0.1 µM) of 5% and an inhibition (DAPK3 (human); compound 1.0 µM) of 10.3%. It also gave an inhibition (CDK5 CDK5R1 p25 (human); compound 0.1 µM) of -5.4%, an inhibition (CDK5 CDK5R1 p25 (human); compound 1.0 µM) of 11.9% and an inhibition (KIT (human); compound 0.1 µM) of -0.2%. The inhibition (KIT (human); compound 1.0 µM) was 8.9%, the inhibition (MELK (human); compound 0.1 µM) was 11.5% and the inhibition (MELK (human); compound 1.0 µM) was 45.5%. It also gave an inhibition (ITK (human); compound 0.1 µM) of 7%, an inhibition (ITK (human); compound 1.0 µM) of 34.9% and an inhibition (DCLK1 (human); compound 0.1 µM) of 3.5%. It also gave an inhibition (DCLK1 (human); compound 1.0 µM) of 5.9%, an inhibition (ROS1 (human); compound 0.1 µM) of 1% and an inhibition (ROS1 (human); compound 1.0 µM) of 12%. It also gave an inhibition (AXL (human); compound 0.1 µM) of 30.6%, an inhibition (AXL (human); compound 1.0 µM) of 77.3% and an inhibition (CSNK1G2 (human); compound 0.1 µM) of -9%. The inhibition (CSNK1G2 (human); compound 1.0 µM) was 1.2%, the inhibition ([3]; compound 0.1 µM) was 16.9% and the inhibition ([3]; compound 1.0 µM) was 61.1%. It also gave an inhibition (EPHA8 (human); compound 0.1 µM) of -1.9%, an inhibition (EPHA8 (human); compound 1.0 µM) of 4.6% and an inhibition (YES1 (human); compound 0.1 µM) of -7.2%. For the same compound, the inhibition (YES1 (human); compound 1.0 µM) was 29.9%, the inhibition ([4]; compound 0.1 µM) was 6.2% and the inhibition ([4]; compound 1.0 µM) was 2.9%. It also gave an inhibition (HIPK1 (human); compound 0.1 µM) of 1%, an inhibition (HIPK1 (human); compound 1.0 µM) of 5.5% and an inhibition (BLK (human); compound 0.1 µM) of -30.4%. For the same compound, the inhibition (BLK (human); compound 1.0 µM) was 29.2%, the inhibition (DAPK1 (human); compound 0.1 µM) was 3% and the inhibition (DAPK1 (human); compound 1.0 µM) was 9.2%. The inhibition (MARK4 (human); compound 0.1 µM) was 7.3%, the inhibition (MARK4 (human); compound 1.0 µM) was 16% and the inhibition (CSNK1G3 (human); compound 0.1 µM) was 9.7%. It also gave an inhibition (CSNK1G3 (human); compound 1.0 µM) of 6.5%, an inhibition (CAMK2A (human); compound 1.0 µM) of 4.4% and an inhibition (HIPK2 (human); compound 0.1 µM) of 8.7%. The inhibition (HIPK2 (human); compound 1.0 µM) was 14.7%, the inhibition (PTK2B (human); compound 0.1 µM) was -3.9% and the inhibition (PTK2B (human); compound 1.0 µM) was 3.2%. It also gave an inhibition (DYRK4 (human); compound 0.1 µM) of 16.9% and an inhibition (DYRK4 (human); compound 1.0 µM) of 1.3%.
`O=C(CCc1ccc2ccc3ncc(C4CCNCC4)cc3c(=O)c2c1)NCc1ccccn1` showed an inhibition (PRKCI (human); compound 0.1 µM) of -0.6%, an inhibition (PRKCI (human); compound 1.0 µM) of 1.4% and an inhibition (PIM3 (human); compound 0.1 µM) of -3.4%. It also gave an inhibition (PIM3 (human); compound 1.0 µM) of 0.3%, an inhibition (ROCK1 (human); compound 0.1 µM) of 4.2% and an inhibition (ROCK1 (human); compound 1.0 µM) of 8.2%. The inhibition (EPHB1 (human); compound 0.1 µM) was 1%, the inhibition (EPHB1 (human); compound 1.0 µM) was 3.3% and the inhibition (TYRO3 (human); compound 0.1 µM) was 4.1%. For the same compound, the inhibition (TYRO3 (human); compound 1.0 µM) was 4.2%, the inhibition (DYRK3 (human); compound 0.1 µM) was -1.4% and the inhibition (DYRK3 (human); compound 1.0 µM) was 2.9%. For the same compound, the inhibition (PASK (human); compound 0.1 µM) was 6.7%, the inhibition (PASK (human); compound 1.0 µM) was 3.2% and the inhibition (RPS6KA6 KD1 KD2 (human); compound 0.1 µM) was 5.9%. The inhibition (RPS6KA6 KD1 KD2 (human); compound 1.0 µM) was -8.4%, the inhibition ([1]; compound 0.1 µM) was 1.6% and the inhibition ([1]; compound 1.0 µM) was -11.1%. For the same compound, the inhibition (MERTK (human); compound 0.1 µM) was 2.5%, the inhibition (MERTK (human); compound 1.0 µM) was 15.5% and the inhibition ([2]; compound 0.1 µM) was -1.7%. The inhibition ([2]; compound 1.0 µM) was 2.1%, the inhibition (DAPK3 (human); compound 0.1 µM) was -1.7% and the inhibition (DAPK3 (human); compound 1.0 µM) was -4.5%. For the same compound, the inhibition (CDK5 CDK5R1 p25 (human); compound 0.1 µM) was 2.2%, the inhibition (CDK5 CDK5R1 p25 (human); compound 1.0 µM) was 0.3% and the inhibition (KIT (human); compound 0.1 µM) was -1.6%. It also gave an inhibition (KIT (human); compound 1.0 µM) of 6.6%, an inhibition (MELK (human); compound 0.1 µM) of 2.7% and an inhibition (MELK (human); compound 1.0 µM) of 5.7%. For the same compound, the inhibition (ITK (human); compound 0.1 µM) was -5%, the inhibition (ITK (human); compound 1.0 µM) was -1.8% and the inhibition (DCLK1 (human); compound 0.1 µM) was -26.1%. The inhibition (DCLK1 (human); compound 1.0 µM) was -5.4%, the inhibition (ROS1 (human); compound 0.1 µM) was 5.1% and the inhibition (ROS1 (human); compound 1.0 µM) was -12.4%. The inhibition (AXL (human); compound 0.1 µM) was 6.1%, the inhibition (AXL (human); compound 1.0 µM) was 20.3% and the inhibition (CSNK1G2 (human); compound 0.1 µM) was 2.7%. It also gave an inhibition (CSNK1G2 (human); compound 1.0 µM) of 5.8%, an inhibition ([3]; compound 0.1 µM) of -12.5% and an inhibition ([3]; compound 1.0 µM) of 21.5%. The inhibition (EPHA8 (human); compound 0.1 µM) was 9.4%, the inhibition (EPHA8 (human); compound 1.0 µM) was 5.1% and the inhibition (YES1 (human); compound 0.1 µM) was -0.7%. It also gave an inhibition (YES1 (human); compound 1.0 µM) of -5.3%, an inhibition ([4]; compound 0.1 µM) of -0.8% and an inhibition ([4]; compound 1.0 µM) of -3.6%. It also gave an inhibition (HIPK1 (human); compound 0.1 µM) of 7.2%, an inhibition (HIPK1 (human); compound 1.0 µM) of -0.1% and an inhibition (BLK (human); compound 0.1 µM) of -0.5%. For the same compound, the inhibition (BLK (human); compound 1.0 µM) was 16.6%, the inhibition (DAPK1 (human); compound 0.1 µM) was 2.4% and the inhibition (DAPK1 (human); compound 1.0 µM) was 0.1%. It also gave an inhibition (MARK4 (human); compound 0.1 µM) of 0%, an inhibition (MARK4 (human); compound 1.0 µM) of -3.4% and an inhibition (CSNK1G3 (human); compound 0.1 µM) of 0.3%. The inhibition (CSNK1G3 (human); compound 1.0 µM) was 15.2%, the inhibition (CAMK2A (human); compound 0.1 µM) was -8.9% and the inhibition (CAMK2A (human); compound 1.0 µM) was -3.1%. The inhibition (HIPK2 (human); compound 0.1 µM) was 3.6%, the inhibition (HIPK2 (human); compound 1.0 µM) was 3.9% and the inhibition (PTK2B (human); compound 0.1 µM) was 10%. The inhibition (PTK2B (human); compound 1.0 µM) was 2.5%, the inhibition (DYRK4 (human); compound 0.1 µM) was 1.8% and the inhibition (DYRK4 (human); compound 1.0 µM) was 0.5%.
